How the values were obtained:
[1] = molecular target: T1, NAD-dependent protein deacetylase sirtuin-2 (Homo sapiens, UniProt Q8IXJ6); assay: Inhibition of N-terminal His6 tagged human sirtuin 2 (25 to 389 residues) at 25 uM using Cbz-Lys(acetyl)-AMC as substrate after 4 hrs in presence of NAD+ by homogeneous fluorescence based analysis relative to control
T1 sequence (Q8IXJ6 whole entry): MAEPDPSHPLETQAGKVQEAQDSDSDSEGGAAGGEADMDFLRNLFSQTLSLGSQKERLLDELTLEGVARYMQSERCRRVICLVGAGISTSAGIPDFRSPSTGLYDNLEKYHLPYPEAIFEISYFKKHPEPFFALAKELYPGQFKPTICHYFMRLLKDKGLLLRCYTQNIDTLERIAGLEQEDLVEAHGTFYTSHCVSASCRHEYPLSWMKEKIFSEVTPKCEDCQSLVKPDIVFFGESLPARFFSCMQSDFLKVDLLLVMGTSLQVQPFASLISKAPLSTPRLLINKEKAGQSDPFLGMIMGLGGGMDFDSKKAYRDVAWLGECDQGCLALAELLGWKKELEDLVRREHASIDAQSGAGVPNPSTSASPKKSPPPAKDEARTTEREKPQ

[2] = molecular target: T2, NAD-dependent protein deacetylase (Schistosoma mansoni) (UniProt T1VXA1); assay: Inhibition of recombinant Schistosoma mansoni sirtuin 2 (21 to 322 residues) expressed in Escherichia coli BL21(DE3) cells assessed as inhibition of substrate demyristoylation at 20 uM using (Z)-(Myr)-Lys-AMC as susbtrate after 1 hr in presence of NAD+ by homogeneous fluorescence based analysis relative to control
T2 sequence (whole entry): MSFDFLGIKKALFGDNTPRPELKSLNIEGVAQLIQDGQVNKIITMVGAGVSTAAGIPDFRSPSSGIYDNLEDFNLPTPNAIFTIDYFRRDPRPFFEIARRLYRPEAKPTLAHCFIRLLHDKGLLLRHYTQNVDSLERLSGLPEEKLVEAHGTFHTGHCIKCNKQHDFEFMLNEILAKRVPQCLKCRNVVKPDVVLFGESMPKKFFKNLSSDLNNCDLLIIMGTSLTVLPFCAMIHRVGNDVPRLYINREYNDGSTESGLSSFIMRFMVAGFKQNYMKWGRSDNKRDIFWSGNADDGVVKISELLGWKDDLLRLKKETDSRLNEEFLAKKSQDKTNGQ

[3] = molecular target: T1, NAD-dependent protein deacetylase sirtuin-2; assay: Inhibition of N-terminal His6 tagged human sirtuin 2 (25 to 389 residues) assessed as inhibition of substrate demyristoylation at 20 uM using (Z)-(Myr)-Lys-AMC as susbtrate after 4 hrs in presence of NAD+ by homogeneous fluorescence based analysis relative to control
[4] = molecular target: T2, NAD-dependent protein deacetylase (Schistosoma mansoni); assay: Inhibition of recombinant Schistosoma mansoni sirtuin 2 (21 to 322 residues) expressed in Escherichia coli BL21(DE3) cells at 25 uM using ZMAL as susbtrate after 1 hr in presence of NAD+ by homogeneous fluorescence based analysis relative to control
[5] = molecular target: T1, NAD-dependent protein deacetylase sirtuin-2; assay: Inhibition of human sirutin 2 assessed as inhibition of susbtrate demyristoylation at 20 uM using (Z)-(Myr)-Lys-AMC as substrate relative to control
[6] = molecular target: T2, NAD-dependent protein deacetylase (Schistosoma mansoni); assay: Inhibition of recombinant Schistosoma mansoni sirtuin 2 (21 to 322 residues) expressed in Escherichia coli BL21(DE3) cells assessed as inhibition of substrate demyristoylation at 20 uM using (Z)-(Myr)-Lys-AMC as substrate relative to control
[7] = molecular target: T2, NAD-dependent protein deacetylase (Schistosoma mansoni); assay: Inhibition of recombinant Schistosoma mansoni sirtuin 2 (21 to 322 residues) expressed in Escherichia coli BL21(DE3) cells assessed as inhibition of substrate deacetylation at 20 uM using ZMAL as substrate relative to control
[8] = molecular target: T3, NAD-dependent protein deacetylase (Schistosoma mansoni, UniProt T1VXA1); assay: Inhibition of recombinant Schistosoma mansoni sirtuin 2 (21 to 322 residues) expressed in Escherichia coli BL21(DE3) cells using ZMAL as substrate after 1 hr in presence of NAD+ by homogeneous fluorescence based analysis
T3 sequence (T1VXA1 whole entry): T2 sequence (whole entry)

[9] = molecular target: T1, NAD-dependent protein deacetylase sirtuin-2; assay: Inhibition of N-terminal His6 tagged human sirtuin 2 (25 to 389 residues) at 50 uM using Cbz-Lys(acetyl)-AMC as substrate after 4 hrs in presence of NAD+ by homogeneous fluorescence based analysis relative to control

CSc1ccc(Oc2ccc(C(C)N(C)c3ncc4c(N)nc(N)nc4n3)cc2)cc1 (stereo not drawn) was tested, and the inhibition at 25 µM [1] was < 15%, the inhibition [2] was < 15% and the inhibition at 20 µM [3] was 38.1%. For the same compound, the inhibition [4] was 49%.
With COc1ccc(C(=O)Nc2ccc(C(C)N(C)c3ncc4c(N)nc(N)nc4n3)cc2)cc1 (stereo not drawn) the inhibition at 25 µM [1] was < 15%, the inhibition [2] was < 15% and the inhibition at 20 µM [3] was < 15%. It also gave an inhibition [4] of 41.9%.
With Cc1cc(C)nc(SCC(=O)Nc2ncc(Cc3cccc4ccccc34)s2)n1 the inhibition at 20 µM [5] was < 15%, the inhibition [6] was < 15% and the inhibition [7] was < 15%.
O=C(c1cc2cc(Cl)ccc2[nH]1)N1CCCCC1c1cccnc1 (stereo not drawn) was tested, and the IC50 [8] was 18.2 µM and the inhibition at 50 µM [9] was < 15%.

From ChEMBL document CHEMBL4321809, “Structure-Reactivity Relationships on Substrates and Inhibitors of the Lysine Deacylase Sirtuin 2 from Schistosoma mansoni (SmSirt2)” (J Med Chem, 2019)
